Our source for the Ki and Km values is paper PMC10564941, “A morpheein equilibrium regulates catalysis in phosphoserine phosphatase SerB2 from Mycobacterium tuberculosis” (Communications Biology, 2023).

For data set [1], the target named is T1, MtSerB2 (phosphoserine phosphatase SerB2) (Mycobacterium tuberculosis, UniProt O53289).
T1 construct: full-length dimer fraction, His-tag cleaved
Nature of the data set: steady-state kinetics, malachite green phosphatase assay; SEC-UV/SAXS dimer-to-trimer shift. In kind it is biochemical.

The subject of data set [2] is N[C@@H](COP(=O)(O)O)C(=O)O. Nature of the data set: purified protein. The settings on record: Mg2+ ([…] MgCl2 in assay) active site; uncompetitive substrate inhibition.

T1 sequence (O53289 whole entry): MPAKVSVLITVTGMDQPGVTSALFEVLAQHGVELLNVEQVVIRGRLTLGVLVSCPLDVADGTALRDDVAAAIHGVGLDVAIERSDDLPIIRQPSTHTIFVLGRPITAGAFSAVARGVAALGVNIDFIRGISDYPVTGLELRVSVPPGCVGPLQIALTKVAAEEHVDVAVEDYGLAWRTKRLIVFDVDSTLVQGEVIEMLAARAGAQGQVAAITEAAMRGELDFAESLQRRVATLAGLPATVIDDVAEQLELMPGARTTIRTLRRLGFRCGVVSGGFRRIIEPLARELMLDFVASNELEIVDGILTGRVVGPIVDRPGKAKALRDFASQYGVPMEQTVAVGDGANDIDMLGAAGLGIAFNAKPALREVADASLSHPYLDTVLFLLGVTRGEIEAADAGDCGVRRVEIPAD

`N[C@@H](CO)C(=O)O` [L-Ser]: in data set [1], the Ki turned out to be 22 ± 5.3 µM.
Turning to “MtSerB2 (phosphoserine phosphatase SerB2) (Mycobacterium tuberculosis H37Rv)”, the Km in data set [2] stood at 480 ± 170 µM.
